Source: patent US8795634B2, “Absorption of therapeutic agents across mucosal membranes or the skin” (Critical Pharmaceuticals Limited, priority 2008, dated 2014)

How the values were obtained:
[1] = Blood glucose after intranasal insulin with Solutol HS15 or its individual components (Example 8); format: in vivo, male Sprague Dawley rats; conditions: insulin 4 IU/kg intranasal; PEG 600 10% w/v, PEG-HSA 10% w/v, HSA 0.37%, HSA-PEG-HSA 2%
Procedure: The PEG-HSA and HSA-PEG-HSA were prepared by refluxing polyethylene glycol 600 (PEG 600) and 12-Hydroxystearic acid (HSA) under argon at 120° C. using methane sulfonic acid. All chemicals were purchased from Sigma Aldrich.
Four components were tested in vivo. The following components were dissolved into 0.063M phosphate buffer at the concentrations below: • PEG 600—10% w/v solution • PEG-HSA—10% w/v Solution • HSA—0.37% solution • HSA-PEG-HSA—2% solution
The lower concentrations of HSA and HSA-PEG-HSA were used due to restricted solubility of these materials.
The components dissolved in phosphate buffer were then used to prepare 1 mg/mL insulin solutions and administered intranasally to male Sprague Dawley rats at a rate of 4 IU/kg. All formulations were administered with a Gilson pipette and the tip was inserted approximately 5 mm into the nostril. The animals were housed in limited access rooms where the temperature and humidity were maintained at 21° C.±2° C. and 55%±15% relative respectively; the rooms were lit with artificial light for 12 hours each day. Blood samples were collected from the tail vein of the rats at 0 min (Pre-dose) and 5, 15, 30, 60 and 120 minutes after administration into heparinized tubes, centrifuged and the plasma collected. Blood glucose was measured immediately at each sampling point using a one touch Ultra 2 glucose meter (LifeScan, UK).

[2] = Blood glucose after intranasal insulin in Solutol HS15 solutions (Example 1); format: in vivo, Sprague Dawley rats; conditions: control insulin solutions, without Solutol HS15
Procedure: The formulations were then administered intranasally to Sprague Dawley rats at 4 IU/kg and blood samples taken at frequent intervals up to 2 hours after administration. Blood glucose was measured using a standard glucose meter and insulin determined in the plasma by an enzyme linked immunosorbant assay (ELISA).
A group of rats was also administered with insulin dissolved in PBS via subcutaneous injection as comparison to the intranasal doses.

Compound | drop in blood glucose levels [1] | decrease in plasma glucose levels [2]
CCCCCCC(O)CCCCCCCCCCC(=O)O (centres unmarked) [HSA, 12-Hydroxystearic acid] | did not | –
insulin: Insulin (available from Sigma-Aldrich) | – | 15%
